Blank lines part the entries; values can stand above or below the compound they belong to. Active and inactive are the calls of the source.
Assays:
Cytochrome P450 3A4 = Cytochrome P450 3A4 (Homo sapiens, UniProt P08684); conditions: Potency;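 further: confirmatory qHTS run detecting inhibitors and substrates of CYP3A4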
[1] = biological target: T1, Zinc finger protein mex-5 (Caenorhabditis elegans, UniProt Q9XUB2); test: potency of MEX-5 RNA-binding blockers – biochemical, C. elegans, fluorescence polarization, dose response (AID 1960)
T1 sequence (Q9XUB2 whole entry): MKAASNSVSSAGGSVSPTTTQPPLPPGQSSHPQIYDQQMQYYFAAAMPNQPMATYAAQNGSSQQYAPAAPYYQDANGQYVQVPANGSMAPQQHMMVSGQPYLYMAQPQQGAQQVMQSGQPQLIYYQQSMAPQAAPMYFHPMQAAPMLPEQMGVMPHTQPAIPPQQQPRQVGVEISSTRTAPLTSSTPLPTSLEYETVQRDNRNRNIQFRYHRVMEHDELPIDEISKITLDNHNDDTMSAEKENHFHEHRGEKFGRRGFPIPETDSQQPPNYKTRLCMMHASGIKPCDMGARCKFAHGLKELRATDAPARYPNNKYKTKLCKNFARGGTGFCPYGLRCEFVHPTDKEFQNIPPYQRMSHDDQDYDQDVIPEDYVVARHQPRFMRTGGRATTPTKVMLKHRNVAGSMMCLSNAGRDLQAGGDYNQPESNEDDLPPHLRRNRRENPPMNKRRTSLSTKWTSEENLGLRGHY

[2] = biological target: T2, RNA-binding protein pos-1 (Caenorhabditis elegans, UniProt G5EF15); test: disruptors of C. elegans POS-1 RNA interaction – biochemical, fluorescence polarization, dose response (AID 1964);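 further: purified POS-1 fused to maltose binding protein made in E. coli; potency of compounds blocking POS-1 binding to fluorescent RNA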
T2 sequence (G5EF15 whole entry): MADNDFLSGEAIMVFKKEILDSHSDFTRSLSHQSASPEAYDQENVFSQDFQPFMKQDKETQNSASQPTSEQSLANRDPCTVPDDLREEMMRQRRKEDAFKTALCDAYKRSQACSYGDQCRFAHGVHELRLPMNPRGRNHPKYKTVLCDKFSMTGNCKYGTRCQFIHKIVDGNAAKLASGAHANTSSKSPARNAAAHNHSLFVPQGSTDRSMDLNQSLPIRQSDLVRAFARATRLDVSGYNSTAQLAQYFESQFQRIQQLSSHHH

[3] = fluconazole-exposed Candida albicans growth modulators – fluorescence, retest, confirmation (AID 2467); format: functional, cell-based
[4] = NIH-3T3 fibroblast cytotoxicity, dose response, cytotoxicity control, cell-based, fluorescence, Alamar Blue, secondary assay (AID 2327); format: functional;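 further: NIH-3T3 mouse fibroblasts cultured with fluconazole at 8 µg/mL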
Large T antigen = Large T antigen (Simian virus 40, UniProt P03070); format: functional, Betapolyomavirus macacae;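 further: Confirmatory-stage PubChem screen for compounds that inhibit SV40 T antigen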
[5] = HIV-1 AD8 envelope cell-cell fusion blockers – cherry-pick, dose response (AID 652062); format: functional, cell-based;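 further: luciferase signal from cell-cell fusion driven by HIV-1 clade B AD8 Env; potency is for inhibitors of fusion seen as a drop in luminescence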
[6] = off-target signal loss in HeLa-CEM21 co-culture – HeLa F-luc CTL cells, cherry-picked, counter-screen for HIV-1 Env fusion inhibitor project, dose response (AID 652040); format: functional, cell-based;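 further: potency for signal decrease marking cytotoxic or nonspecific inhibition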
[7] = blockers of HIV-1 ZM109 envelope-driven cell-cell fusion – HeLa effector, CEM target cells, luciferase, cherry-pick, dose response (AID 652058); format: functional, cell-based;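 further: luciferase signal from HIV-1 Env mediated cell-cell fusion of effector and target cells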
[8] = blockers of HIV-1 envelope-mediated cell-cell fusion – cherry-pick, dose response (AID 652057); format: functional, cell-based
[9] = biological target: T3, Heat shock factor protein 1 (Mus musculus, UniProt P38532); test: decrease of HSF1-responsive luciferase luminescence – cell-based, NIH3T3, dose retest, confirmation (AID 2382); format: functional;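 further: NIH3T3 fibroblasts with HSF1-driven luciferase reporter stressed by proteasome inhibitor MG132; luminescence from HSF1-driven luciferase expression after 8 hours of MG132 stress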
T3 sequence (P38532 whole entry): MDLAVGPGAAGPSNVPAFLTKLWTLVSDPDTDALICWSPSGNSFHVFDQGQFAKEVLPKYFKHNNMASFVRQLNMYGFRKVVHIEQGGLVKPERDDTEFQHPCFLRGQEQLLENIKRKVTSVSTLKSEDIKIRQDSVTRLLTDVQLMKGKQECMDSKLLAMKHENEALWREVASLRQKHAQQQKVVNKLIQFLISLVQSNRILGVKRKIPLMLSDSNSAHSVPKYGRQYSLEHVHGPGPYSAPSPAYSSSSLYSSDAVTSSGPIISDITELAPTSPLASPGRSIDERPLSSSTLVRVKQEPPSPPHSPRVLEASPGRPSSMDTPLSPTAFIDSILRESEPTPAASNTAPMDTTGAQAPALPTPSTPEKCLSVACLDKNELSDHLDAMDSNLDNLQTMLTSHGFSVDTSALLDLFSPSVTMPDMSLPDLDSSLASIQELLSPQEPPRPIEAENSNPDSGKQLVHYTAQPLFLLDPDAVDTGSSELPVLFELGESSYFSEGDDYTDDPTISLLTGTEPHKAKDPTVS

[10] = biological target: T4, Rac GTPase-activating protein 1 (Homo sapiens, UniProt Q9H0H5); test: blockers of MgcRacGAP-driven Rac1 GTP hydrolysis – biochemical, ADP Hunter fluorescence, primary and confirmatory, confirmation (AID 624330); format: functional
T4 sequence (Q9H0H5 whole entry): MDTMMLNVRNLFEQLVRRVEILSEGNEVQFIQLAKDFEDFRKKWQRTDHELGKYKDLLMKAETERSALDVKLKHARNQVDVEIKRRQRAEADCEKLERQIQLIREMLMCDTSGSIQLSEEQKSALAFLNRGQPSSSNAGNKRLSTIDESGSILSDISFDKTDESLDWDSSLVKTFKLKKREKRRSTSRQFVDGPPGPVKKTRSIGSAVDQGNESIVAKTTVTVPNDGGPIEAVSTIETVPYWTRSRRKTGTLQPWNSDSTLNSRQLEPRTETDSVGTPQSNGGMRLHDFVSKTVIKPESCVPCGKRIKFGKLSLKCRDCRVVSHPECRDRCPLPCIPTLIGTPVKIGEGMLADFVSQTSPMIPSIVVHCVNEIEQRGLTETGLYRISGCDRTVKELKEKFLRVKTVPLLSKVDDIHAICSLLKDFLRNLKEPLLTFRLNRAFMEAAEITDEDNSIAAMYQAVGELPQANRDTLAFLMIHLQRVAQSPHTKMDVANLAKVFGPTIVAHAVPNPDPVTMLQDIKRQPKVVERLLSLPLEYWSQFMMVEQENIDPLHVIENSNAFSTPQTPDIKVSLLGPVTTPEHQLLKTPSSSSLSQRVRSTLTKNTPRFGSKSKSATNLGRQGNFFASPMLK

[11] = Trypanosoma cruzi growth suppression in host cells – NIH3T3 host cells, beta-gal luminescence, confirmation (AID 2044); format: functional, cell-based;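 further: intracellular parasites grown in NIH/3T3 mouse fibroblasts as host cells; luminescent beta-galactosidase reporter signal from transgenic T. cruzi replicating inside host cells; inhibitors lower the luminescence signal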
[12] = NIH3T3 cell viability loss – ATP luminescence, mouse fibroblasts, counter-screen, dose response (AID 2010); format: functional, cell-based;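 further: cells exposed to compound for about 90 hours before reading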
[13] = intracellular Trypanosoma cruzi inhibitors in host cells – cell-based, plate reader, cherry-pick samples, set 3, dose response (AID 651818); format: functional;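 further: compounds incubated with infected cells for about four days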
[14] = biological target: T5, Microphthalmia-associated transcription factor (Homo sapiens, UniProt O75030); test: reducers of TRPM1 reporter luminescence, concentration series – cell-based, SK-MEL-5, cherry-picked, set 3, MITF inhibitor project, dose response (AID 493073); format: functional;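 further: SK-MEL-5 melanoma cells with luciferase driven by the MITF target TRPM1 promoter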
T5 sequence (O75030 whole entry): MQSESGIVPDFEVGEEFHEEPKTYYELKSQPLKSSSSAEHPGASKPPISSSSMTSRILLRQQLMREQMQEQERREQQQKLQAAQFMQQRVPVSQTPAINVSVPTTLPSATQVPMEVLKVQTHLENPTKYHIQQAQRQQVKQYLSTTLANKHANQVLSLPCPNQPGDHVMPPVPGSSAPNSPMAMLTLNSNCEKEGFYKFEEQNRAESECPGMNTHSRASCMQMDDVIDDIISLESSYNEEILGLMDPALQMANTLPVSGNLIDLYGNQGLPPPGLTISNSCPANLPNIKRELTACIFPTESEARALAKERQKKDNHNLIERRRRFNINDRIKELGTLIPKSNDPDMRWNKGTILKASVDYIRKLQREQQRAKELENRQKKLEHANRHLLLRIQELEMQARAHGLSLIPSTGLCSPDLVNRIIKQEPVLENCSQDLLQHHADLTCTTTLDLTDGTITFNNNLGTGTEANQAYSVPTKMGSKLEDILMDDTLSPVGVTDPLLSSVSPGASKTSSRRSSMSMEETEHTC

Chain of Large T antigen (P03070 whole entry, the tested form may be a part): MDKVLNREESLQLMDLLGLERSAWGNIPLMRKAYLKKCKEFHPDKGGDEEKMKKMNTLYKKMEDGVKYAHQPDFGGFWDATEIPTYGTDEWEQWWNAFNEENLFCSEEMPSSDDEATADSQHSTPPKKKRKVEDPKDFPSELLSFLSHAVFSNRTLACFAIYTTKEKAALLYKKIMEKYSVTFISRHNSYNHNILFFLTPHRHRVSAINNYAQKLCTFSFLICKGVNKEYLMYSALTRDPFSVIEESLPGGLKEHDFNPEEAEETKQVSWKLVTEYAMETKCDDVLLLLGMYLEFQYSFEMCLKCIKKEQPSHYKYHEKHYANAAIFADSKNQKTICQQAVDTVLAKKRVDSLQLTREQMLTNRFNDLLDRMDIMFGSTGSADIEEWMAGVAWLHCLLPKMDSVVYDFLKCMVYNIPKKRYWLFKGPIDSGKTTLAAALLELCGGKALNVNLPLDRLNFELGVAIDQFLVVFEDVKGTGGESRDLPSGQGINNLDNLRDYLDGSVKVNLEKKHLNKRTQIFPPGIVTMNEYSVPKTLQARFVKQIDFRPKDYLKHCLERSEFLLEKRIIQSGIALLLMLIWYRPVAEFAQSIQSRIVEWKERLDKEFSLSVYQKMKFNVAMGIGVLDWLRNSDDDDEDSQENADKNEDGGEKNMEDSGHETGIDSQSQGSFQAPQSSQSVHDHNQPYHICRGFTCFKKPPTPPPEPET
Chain of Cytochrome P450 3A4 (P08684 whole entry): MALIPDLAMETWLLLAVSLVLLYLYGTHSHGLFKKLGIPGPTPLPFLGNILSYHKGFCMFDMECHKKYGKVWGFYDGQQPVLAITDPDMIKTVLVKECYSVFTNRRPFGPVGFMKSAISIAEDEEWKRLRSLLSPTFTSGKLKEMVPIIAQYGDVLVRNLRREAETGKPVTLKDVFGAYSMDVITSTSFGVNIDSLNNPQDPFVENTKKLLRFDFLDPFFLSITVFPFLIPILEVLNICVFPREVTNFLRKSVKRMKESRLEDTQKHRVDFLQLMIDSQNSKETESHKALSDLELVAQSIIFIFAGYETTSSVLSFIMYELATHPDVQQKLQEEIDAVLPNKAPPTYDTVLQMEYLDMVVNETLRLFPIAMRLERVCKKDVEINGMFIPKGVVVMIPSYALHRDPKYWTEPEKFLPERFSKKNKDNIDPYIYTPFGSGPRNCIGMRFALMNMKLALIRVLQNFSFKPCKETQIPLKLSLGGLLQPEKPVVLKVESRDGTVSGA

- IC50 (Large T antigen): 11.7 µM (active)
SMILES: COC(=O)/C=C/C(=O)Nc1ccc(O)c(Cl)c1

- IC50 (Large T antigen): 20 µM (active)
SMILES: COc1cc(/C=C/C(=O)OCC(=O)Nc2ccc(S(N)(=O)=O)cc2)ccc1O

- IC50 (Large T antigen): 10.7 µM (active)
SMILES: Oc1ccc(Nc2nc(Cl)nc(NCc3ccco3)n2)cc1

- EC50 [9]: > 195 µM (not active)
- IC50 [10]: 64.7 µM (active)
SMILES: CCOc1ccc(NCc2cccn2-c2nnc(N3CCC(C(=O)NCCCN4CCCCC4)CC3)s2)cc1

- EC50 [1]: > 300 µM (not active)
- EC50 [2]: > 300 µM (not active)
- AC50 (Cytochrome P450 3A4): 25.1 µM (inconclusive)
SMILES: COC(=O)c1ccc(C23CC4(C2)[C@H](CN(Cc2ccc(C(F)(F)F)cc2)[C@@H]4c2ccccc2)C3c2ccccc2)cc1 (stereo partly specified)

- EC50 [9]: > 195 µM (not active)
SMILES: Cn1cc(CN2CCc3ccccc3C2)c2ccccc21

- EC50 [9]: > 195 µM (not active)
SMILES: O=C(CCc1ccccc1)Nc1cccc([N+](=O)[O-])c1

- EC50 [9]: > 195 µM (not active)
SMILES: CCCCCn1c(SCC(=O)CC(=O)OCC)nc2cc(C(=O)N3CCC(C(N)=O)CC3)ccc2c1=O

- EC50 [9]: > 195 µM (not active)
SMILES: Cc1cc(OCC(=O)NCCc2ccc(S(N)(=O)=O)cc2)c2c(C)cc(=O)oc2c1

- IC50 [10]: 77 µM (active)
- IC50 (Large T antigen): 19.5 µM (active)
SMILES: O=C(COc1cccc2cccnc12)N/N=C/c1ccc(O)cc1

- AC50 [14]: 5.22 µM (active)
SMILES: C=C1C(=O)O[C@@]23[C@H]1CC[C@@H](C)[C@@H]2CC[C@@]1(C)O[C@@H]31 [ARTEANNUIN B]

The next lines start with the compound.

SMILES: CCCn1c(C)nc2c(NC(C)CCCN(CC)CC)nc(C)nc21 (stereo unspecified)
- AC50 (Cytochrome P450 3A4): 25.1 µM (inconclusive)

SMILES: COc1cc(/C=C2\C(=O)NN(c3ccccc3)C2=O)cc([N+](=O)[O-])c1O
- EC50 [1]: 37.5 µM (active)
- EC50 [2]: > 300 µM (not active)
- EC50 [3]: > 38 µM (not active)
- EC50 [4]: 21.2 µM (inconclusive)
- IC50 (Large T antigen): > 100 µM (active)

SMILES: CN1CC(CO)=C[C@H]2c3cccc4[nH]cc(c34)C[C@H]21
- AC50 (Cytochrome P450 3A4): 39.8 µM (inconclusive)

SMILES: CCC1=C(OC(=O)N(CC)CC)N2C(=O)O/C(=N\CCOC)[C@]2(C)[C@H]2C1=CC[C@H]1C(=O)N(C)C(=O)[C@H]12
- AC50 (Cytochrome P450 3A4): 10 µM (inconclusive)

SMILES: CC(C)CNC(=O)c1ccccc1NC(=O)c1ccccc1N(C)S(=O)(=O)c1ccccc1
- AC50 [5]: 0.261 µM (active)
- AC50 [6]: 1.62 µM (active)
- AC50 [7]: 0.937 µM (active)
- AC50 [8]: 0.961 µM (active)

SMILES: CN(Cc1ccc(Cl)cc1Cl)C(=O)c1cccc(S(=O)(=O)N2CCN(c3ccccc3)CC2)c1
- EC50 [11]: 1.64 µM (active)
- AC50 [5]: 43 µM (active)
- AC50 [6]: > 70 µM (inactive)
- EC50 [12]: > 60 µM (not active)
- AC50 [7]: 36 µM (active)
- AC50 [8]: 23.9 µM (active)

SMILES: C=CCOC(=O)C(C(=O)CC)C(NC(=O)OC)c1ccc(F)cc1 (stereo unspecified)
- AC50 (Cytochrome P450 3A4): 3.16 µM (inconclusive)

SMILES: COc1ccc(-c2coc3cc(OC(C)=O)cc(OC(C)=O)c3c2=O)cc1
- AC50 (Cytochrome P450 3A4): 31.6 µM (inconclusive)

SMILES: CC(=O)c1c(O)c(C)c(O)c2c1OC1=CC(=O)C(C(C)=O)C(=O)[C@@]12C (stereo partly specified)
- AC50 (Cytochrome P450 3A4): 12.6 µM (inconclusive)

SMILES: CCCc1nc(-c2ccccc2O)n(-c2ccccc2)n1
- EC50 [9]: > 195 µM (not active)

SMILES: Cc1n[nH]c2ncc(C(=O)c3ccccc3O)cc12
- AC50 [5]: 4.64 µM (active)
- AC50 [6]: 2.78 µM (active)
- AC50 [7]: 0.606 µM (active)
- AC50 [8]: 6.5 µM (active)

SMILES: c1cnc2ccc(C(c3nnnn3C3CCCCC3)N3CCCCC3)cc2c1 (stereo unspecified)
- AC50 [5]: 10.1 µM (active)
- AC50 [6]: 6.97 µM (active)
- AC50 [7]: 14.9 µM (active)
- AC50 [8]: 4.05 µM (active)

SMILES: C[C@H]1CN([C@@H](C)CO)C(=O)Cc2cc(NS(=O)(=O)c3ccccc3)ccc2O[C@H]1CN(C)Cc1ccc(C(=O)Nc2ccccc2N)cc1
- AC50 [13]: 3.55 µM (active)

SMILES: C[C@H]1CN([C@@H](C)CO)C(=O)Cc2cc(N(C)C)ccc2O[C@H]1CN(C)Cc1ccc(Oc2ccccc2)cc1
- AC50 [13]: 1.57 µM (active)

SMILES: COc1ccc(S(=O)(=O)Nc2ccc3c(c2)C(=O)N([C@@H](C)CO)C[C@H](C)[C@H](CN(C)Cc2ccc(C(F)(F)F)cc2)O3)cc1
- AC50 [13]: 4.07 µM (active)

SMILES: Cc1ccc(S(=O)(=O)N(C)C[C@@H]2Oc3ncc(Br)cc3C(=O)N([C@@H](C)CO)C[C@@H]2C)cc1
- AC50 [5]: 9.72 µM (active)
- AC50 [7]: 3.56 µM (active)
- AC50 [8]: 4.36 µM (active)

SMILES: Cc1cc(O)nc(N/N=C/c2c[nH]c3ccccc23)n1
- IC50 (Large T antigen): 24.6 µM (active)

SMILES: COc1cc(/C=N/N2C(=O)C3C4C=CC(CC4)C3C2=O)ccc1O (stereo unspecified)
- IC50 (Large T antigen): 10.1 µM (active)

SMILES: COc1ccc2c(c1)OCC(Cc1ccc(OC)c(OC(C)=O)c1)C2=O (stereo unspecified) [DEOXYSAPPANONE B 7,3'-DIMETHYL ETHER ACETATE]
- AC50 (Cytochrome P450 3A4): 39.8 µM (inconclusive)

SMILES: Cc1cc(O)c(C=O)c2c1C(=O)Oc1c(COC(=O)/C=C/C(=O)O)c(O)c(C(=O)O)c(C)c1O2 [FUMARPROTOCETRARIC ACID]
- AC50 (Cytochrome P450 3A4): 39.8 µM (inconclusive)

SMILES: COc1cc2ccc(=O)oc2c2ccoc12 [SPHONDIN]
- AC50 (Cytochrome P450 3A4): 3.98 µM (inconclusive)
